From patent publication US20170052172A1, “IMMUNE HEPATOTOXICITY SCREENING METHOD USING HEPATOCYTES DERIVED FROM HUMAN STEM CELLS” (KOREA ADVANCED INSTITUTE OF SCIENCE AND TECHNOLOGY, priority 2014, published 2017)

Tests used:
[1] = test system: human hepatocytes (hES15); test: Cytokine ELISA secretion profiling of human hepatocytes after drug treatment
Method: Upon completion of the culture, the maturation of hepatocytes was induced by the same manner as described in Example 1 and then the matured hepatocytes were obtained (FIG. 1).
(§1) Particularly, the hepatocytes at 19th day of the differentiation from human stem cells, which were prepared by the method described in Example 1, were distributed in a 6-well plate (90%/well), and then the medium was replaced with 1000 mg/L DMEM-low glucose medium (Dulbecco's Modified Eagle's Medium, Welgene No. 001-11), followed by culture for 2 hours. Then, the stem cell derived hepatocyte culture medium was obtained. To eliminate by-products of the cell culture, centrifugation was performed at 12,000×g, for 20 minutes at 4° C. Supernatant was obtained. The capture antibodies, 2.5 μg/ml anti-IL-1β antibody, 2 μg/ml anti-IL-6 antibody, 2.5 μg/ml anti-IL-10 antibody, 2 μg/ml anti-IL-12 antibody, 1 μg/ml anti-TNF-α antibody, 2 μg/ml anti-IFN-α antibody, 1 μg/ml anti-IFN-β antibody, and 2 μg/ml anti-TGF-β antibody, were cultured at 37° C. for 2 hours, with which 96-well ELISA plate was coated. The plate was washed, followed by blocking with 0.2% I-block (Foster city, CA) at 37° C. for 2 hours. Upon completion of the blocking, the capture antibodies were washed and cultured with a standard material (2 fold serial diluted in protein free flexible plate from 10 ng/ml to 4.88 pg/ml) and the supernatant in ELISA plate (Greiner, Kremsmunster, Austria) at 37° C. for 2 hours. Upon completion of the culture, the biotinylated detection antibodies (anti-IL-1β antibody: 2 μg/ml, anti-IL-6 antibody: 1 μg/ml, anti-IL-10 antibody: 1 μg/ml, anti-IL-12 antibody: 1 μg/ml, anti-TNF-α antibody: 1 μg/ml, anti-IFN-α antibody: 4 μg/ml, anti-IFN-β antibody: 2 μg/ml, anti-TGF-β antibody: 1 μg/ml, final concentration) were added thereto, followed by further culture at 37° C. for 2 hours. Then, alkaline phosphatase conjugated streptavidin was added thereto, followed by further culture at room temperature for 30 minutes. 5 mM nitrophenyl phosphate substrate was added thereto, and OD405 was measured by using ELISA reader.
Particularly, the hepatocytes at 19th day of the differentiation from human stem cells, which were prepared by the method described in Example 1, were distributed in a 6-well plate (90%/well), and then the medium was replaced with 1000 mg/L DMEM-low glucose medium (Dulbecco's Modified Eagle's Medium, Welgene No. 001-11), followed by culture for 2 hours. […] Then, culture fluids of the hepatocytes differentiated from stem cells and the human hepatocytes were obtained to extract immunotoxic materials therefrom. To eliminate by-products of the cultured cells, centrifugation was performed at 12,000×g for 20 minutes at 4° C., and then supernatant was obtained. […]

[2] = test system: hepatocytes differentiated from human embryonic stem cells (hESC4); test: Cytokine ELISA secretion profiling of stem cell derived hepatocytes after drug treatment; settings: ELISA of supernatant
Method: as §1
(§2) Particularly, the hepatocytes at 19th day of the differentiation from human stem cells, which were prepared by the method described in Example 1, were distributed in a 6-well plate (90%/well), and then the medium was replaced with 1000 mg/L DMEM-low glucose medium (Dulbecco's Modified Eagle's Medium, Welgene No. 001-11), followed by culture for 2 hours.

[3] = test system: hepatocytes differentiated from human embryonic stem cells (hESC4)
Method: as §1, §2

[4] = CCl4 0, 5, 10, 20 mM for 24 hours, ELISA of supernatant
[5] = CCl4 0, 5, 10, 20 mM for 24 hours

`ClC(Cl)(Cl)Cl` [CCl4] was tested, and the IFN-α detected [1, 4] was “also detected in the cells”, the IL-10 detected [1, 4] was “also detected in the cells” and the “cytokine secretion compared with hepatocytes differentiated from stem cells” value ([1]; considering the smaller number of human hepatocytes, CCl4: cytokines, acetaminophen: IL-6 and IFN-β) was “secreted more in human hepatocytes”. For the same compound, the IL-6 detected ([1]; treatment for 24 hours (CCl4 0, 5, 10, 20 mM; acetaminophen 0, 10, 20 mM), ELISA of supernatant) was “also detected in the cells”, the IFN-α detected [2, 5] was “detected in the cells CCl4 dose dependently” and the IL-10 detected [2, 5] was “detected in the cells CCl4 dose dependently”. For the same compound, the IL-6 detected ([2]; treatment for 24 hours (CCl4 0, 5, 10, 20 mM; acetaminophen 0, 10, 20 mM)) was “detected in the cells CCl4 dose dependently”.

In the case of `CCO` [ethanol], the “ethanol induced toxic reaction” value [3] is reported as “did not show ethanol induced toxic reaction”.
